Measurements published in US20130129675A1, “INTERFERON THERAPIES IN COMBINATION WITH BLOCKADE OF STAT3 ACTIVATION” (BOARD OF REGENTS, THE UNIVERSITY OF TEXAS SYSTEM, priority 2009, published 2013).
Where two headings read alike, the source gives them in different places.

How the values were obtained:
STAT3 = STAT3 (Homo sapiens, UniProt P40763); settings: in vitro; cited from earlier work
[1] = tested on: breast carcinoma cell lines with constitutively active STAT3; settings: cited from earlier work
[2] = tested on: human breast tumor xenografts; settings: cited from earlier work
[3] = Toxicology of p-STAT3 inhibitors in mice (histology of systemic organs, Luxol fast blue staining of CNS axis); format: in vivo, C57BL/6J mice; settings: for histological examination of the systemic organs: treated mice
Source text: The toxicological properties of the small molecule inhibitors of p-STAT3 appear favorable. […] Because p-STAT3 blockade agents are potent immune activators, nonspecific immune reactivity in the CNS remains a consideration. […] Fujita M, Zhu X, Sasaki K, et al., Inhibition Of STAT3 Promotes The Efficacy Of Adoptive Transfer Therapy Using Type-1 CTLs By Modulation Of The Immunological Microenvironment In A Murine Intracranial Glioma, J Immunol 2008; 180:2089-2098. This lack of induced autoimmunity may be due to STAT3's role as the key regulator of the generation of Th17 cells, which are primary immune cell mediators of autoimmunity. Thus, the inhibitors of p-STAT3 may also be inhibiting the mediators of CNS autoimmunity-Th 17 responses.

[4] = tested on: lymphoma and cervical cancer; settings: cited from earlier work
[5] = tested on: human breast carcinoma and syngeneic murine melanoma; settings: not in carcinomas that lack constitutive expression of p-STAT3; cited from earlier work
[6] = animals treated with JSI-124 (Fujita et al.); cited from earlier work
intracerebral tumors = settings: mouse, in vivo; cited from earlier work
[7] = parameters: species or system CD1 mice; settings: in vivo; for mean peak plasma concentration: CD1, mouse, iv
Protocol: Of central importance to the treatment of CNS gliomas and metastasis is the use of agents with sufficient CNS permeability and subsequent cytotoxic activity, of which there is direct evidence for WP1066 and indirect evidence for JSI-124. To determine the physiological doses of WP1066 that can be achieved in vivo, CD1 mice were given WP1066 as an intravenous bolus (10 or 40 mg/kg) or by oral gavage (40 mg/kg) and killed at various time points up to 24 hours after treatment. […] When WP1066 was delivered intraperitoneally at a dose of 100 mg/kg or intravenously at a dose of 10 mg/kg every other day for up to 2 weeks, plasma concentrations exceeded 1 μM, and CNS concentrations (with an intact blood-brain barrier) exceeded 62 μg/g of tissue (0.185 μM); concentrations in U87-MG malignant glioma-bearing animals exceeded 362 μg/g (1.08 μM). […] Fujita M, Zhu X, Sasaki K, et al., Inhibition Of STAT3 Promotes The Efficacy Of Adoptive Transfer Therapy Using Type-1 CTLs By Modulation Of The Immunological Microenvironment In A Murine Intracranial Glioma, J Immunol 2008; 180:2089-2098.

[8] = tested on: human melanoma xenografts and syngeneic murine melanoma; assay: WP1066 in melanoma xenografts and syngeneic melanoma; format: in vivo; settings: oral gavage
Protocol: (§1) Iwamaru A, Szymanski S, Iwado E, et al., A Novel Inhibitor Of The STAT3 Pathway Induces Apoptosis In Malignant Glioma Cells Both In Vitro And In Vivo. Oncogene 2006; 26: 2435-2444. […] To determine whether treatment with WP1066 is efficacious against established syngeneic intracerebral tumors, C57BL/6J mice with melanoma tumors (B16) were treated by oral gavage with WP1066 starting on day 3 after tumor implantation. […] Kong L Y, Abou-Ghazal M K, Wei J, et al., A Novel Inhibitor Of STAT3 Activation Is Efficacious Against Established Central Nervous System Melanoma And Inhibits Regulatory T Cells, Clin Cancer Res (Submitted).

melanoma tumors (B16) = assay: WP1066 against established syngeneic intracerebral tumors; format: in vivo, C57BL/6J mice
Protocol: as §1
Fujita M, Zhu X, Sasaki K, et al., Inhibition Of STAT3 Promotes The Efficacy Of Adoptive Transfer Therapy Using Type-1 CTLs By Modulation Of The Immunological Microenvironment In A Murine Intracranial Glioma, J Immunol 2008; 180:2089-2098. […] Furthermore, when JSI-124 was combined with adoptive transfer of type I cytotoxic T lymphocytes, survival was further enhanced compared with treatment with either modality alone. The authors concluded that the inhibition of STAT3 could reverse the immune-suppressive immune microenvironment and promote the efficacy of adoptive transfer therapy. Id.

[9] = tested on: CD4+CD25−CD62Lhi naïve T cells; assay: FoxP3 induction during inducible Treg (iTreg) differentiation; format: cell-based, C57BL/6J mice; settings: 0, 0.1 and 1.0 μM, 96 hours, flow cytometry (FIG. 2)
Protocol: (§2) The blockade of activation of STAT3 and its subsequent nuclear translocation inhibits both tumorigenesis and tumor-mediated immunosuppression. […] CD4^+CD25^−CD62L^hi naïve T cells from C57BL/6J mice were stimulated by plate-bound anti-CD3 (2 μg/ml) and soluble anti-CD28 (2 μg/ml) in the presence of TGF-β1 (1 ng/ml) and hIL-2 (200 U/ml), with 0, 0.1, and 1.0 μM WP1066 for inducible Tregs (iTreg) differentiation. CD4^+CD25^+ T cells (natural Tregs, nTreg) were stimulated by plate-bound anti-CD3 (2 μg/ml) and soluble anti-CD28 (2 μg/ml) in the presence of hIL-2 (200 U/ml), with 0, 0.1, and 1.0 μM WP1066. Ninety-six hours after stimulation, the cells were analyzed for intracellular FoxP3 expression by flow cytometry. The percentage of FoxP3 expressing T cells is shown.
(§3) In additional experiments, CD4^+CD25^−CD62L^hi naïve T cells from C57BL/6J mice were stimulated by plate-bound anti-CD3 (2 μg/ml) and soluble anti-CD28 (2 μg/ml) in the presence of TGF-β1 (1 ng/ml) and hIL-2 (200 U/ml), with 0, 0.1, and 1.0 μM WP1066 for inducible Tregs (iTreg) differentiation. CD4^+CD25^+ T cells (natural Tregs, nTreg) were stimulated by plate-bound anti-CD3 (2 μg/ml) and soluble anti-CD28 (2 μg/ml) in the presence of hIL-2 (200 U/ml), with 0, 0.1, and 1.0 μM WP1066. Ninety-six hours after stimulation, the cells were analyzed for intracellular FoxP3 expression by flow cytometry.

[10] = tested on: malignant glioma xenografts (U-87 and U-373); settings: cited from earlier work
[11] = tested on: microglia, systemic APCs and T cells from patients with cancer; assay: WP1066 on immune cells obtained from patients with cancer; format: cell-based
Source text: We recently have shown that blocking STAT3 activity by treatment with WP1066 in microglia obtained from the CNS of patients with cancer upregulates co-stimulatory molecules (e.g., CD80, CD86). The expression of co-stimulatory molecules is necessary for T-cell proliferation, and if a T cell encounters APCs, such as microglia/microphages, without co-stimulatory molecules present, the T cells will be rendered anergic. […] Of note, this potent immune activation occurred in immune cells obtained from patients with disease refractory to other conventional immune activators, such as toll-like receptor agonists.

[12] = tested on: CD4+CD25+ T cells (natural Tregs); assay: FoxP3 expression in natural Tregs (nTreg); format: cell-based, C57BL/6J mice; settings: 0, 0.1 and 1.0 μM, 96 hours, flow cytometry (FIG. 2)
Protocol: as §2, §3

[13] = tested on: head and neck carcinoma (MDA1986), pancreatic cancer (MiaPaca2), bladder cancer, glioma (U-87), lymphoma, myeloma, leukemia; settings: 40 mg/kg intraperitoneally every other day for 28 days; cited from earlier work
[14] = tested on: human lung cancer xenografts; settings: cited from earlier work
[15] = tested on: STAT3 in HaCaT keratinocytes; assay: pSTAT3 level in HaCaT keratinocytes (MSD chemiluminescent detection); format: cell-based, human; settings: for Relative level of pSAT3: HaCaT cells, stimuli for 30 minutes
Protocol: Prior to experiments, the DMEM medium was changed to KGM-SFM containing rEGF and bovine pituitary extract for 12 hours, and the cells then exposed to various stimuli for 30 minutes. Cell lysates were extracted in IP lysis buffer were diluted in MSD extraction buffer and 25 uL of the cell lysate containing 10 ug protein was used in the analysis via chemiluminescent detection (MSD Technology). To test for inhibition by WP1220 (WP), cells were pre-incubated with WP1220 prior to the addition of IFN α.

STAT3, sequence (P40763 whole entry, species assumed): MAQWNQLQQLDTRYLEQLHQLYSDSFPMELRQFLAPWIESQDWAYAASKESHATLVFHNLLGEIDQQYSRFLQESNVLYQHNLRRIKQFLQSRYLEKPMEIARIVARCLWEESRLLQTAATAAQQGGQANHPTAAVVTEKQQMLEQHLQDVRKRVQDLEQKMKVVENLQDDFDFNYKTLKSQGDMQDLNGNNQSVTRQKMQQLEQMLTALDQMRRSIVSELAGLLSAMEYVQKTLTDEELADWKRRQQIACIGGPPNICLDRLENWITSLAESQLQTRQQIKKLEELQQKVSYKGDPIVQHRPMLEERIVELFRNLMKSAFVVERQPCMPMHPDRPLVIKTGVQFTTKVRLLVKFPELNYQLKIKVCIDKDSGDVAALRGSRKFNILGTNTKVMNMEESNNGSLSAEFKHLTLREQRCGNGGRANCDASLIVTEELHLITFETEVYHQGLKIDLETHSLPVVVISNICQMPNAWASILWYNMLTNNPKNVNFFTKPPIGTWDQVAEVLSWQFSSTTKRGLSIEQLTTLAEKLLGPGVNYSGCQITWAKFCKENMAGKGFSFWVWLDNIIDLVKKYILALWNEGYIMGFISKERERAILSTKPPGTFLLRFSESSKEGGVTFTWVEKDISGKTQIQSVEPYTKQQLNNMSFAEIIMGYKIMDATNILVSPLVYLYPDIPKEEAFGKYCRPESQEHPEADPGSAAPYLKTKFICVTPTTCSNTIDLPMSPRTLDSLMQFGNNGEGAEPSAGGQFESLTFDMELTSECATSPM

N#C/C(=C\c1ccc(O)c(O)c1)C(=O)NCc1ccccc1 [AG490, (E)-N-benzyl-2-cyano-3-(3,4-dihydroxyphenyl)acrylamide]
IC50 (STAT3): > 50 µM

Cc1ccc(S(=O)(=O)OCC(=O)Nc2ccc(C(=O)O)c(O)c2)cc1 [Example S31-301]
growth and apoptosis [1]: inhibit growth and induce apoptosis preferentially | in vivo tumor growth [2]: suppress the in vivo growth of human breast tumor xenografts

CC(C)(O)/C=C/C(=O)[C@](C)(O)[C@H]1[C@H](O)C[C@@]2(C)[C@@H]3CC=C4[C@@H](C=C(O)C(=O)C4(C)C)[C@]3(C)C(=O)C[C@]12C [JSI-124, cucurbitacin I]
histological examination of the systemic organs [3]: failed to reveal any major toxicities | in vitro activity [4]: in vitro activity against lymphoma and cervical cancer | in vivo tumor growth [5]: inhibit the in vivo growth of human breast carcinoma and syngeneic murine melanoma | induced autoimmunity [6]: no evidence of induced autoimmunity | survival (intracerebral tumors): prolonged survival

C[C@H](NC(=O)/C(C#N)=C/c1cccc(Br)n1)c1ccccc1 [WP1066, (S,E)-3-(6-bromopyridin-2-yl)-2-cyano-N-(1-phenylethyl)acrylamide]
induction of autoimmunity in CNS (Luxol fast blue staining) ([3]; C57BL/6J mice): no evidence of induction of autoimmunity | local tolerability ([3]; mouse, in vivo): localized inflammatory responses | histological examination of the systemic organs [3]: failed to reveal any major toxicities | mean peak plasma concentration ([7]; 10 mg/kg): 1.05 µM | mean peak plasma concentration ([7]; 40 mg/kg): 4.31 µM | mean peak plasma concentration (oral bioavailability studies) ([7]; mouse, po, 40 mg/kg): greater than 2 μM | tumor growth [8]: marked growth suppression | in vivo efficacy in immune-incompetent background (melanoma tumors (B16); established intracerebral tumors, immune-incompetent background): ablated | animals surviving long-term (melanoma tumors (B16); oral gavage starting on day 3 after tumor implantation, vehicle control 0%): 80% | FoxP3 induction in T cells [9]: inhibiting FoxP3 induction | duration of p-STAT3 inhibition in excised tumors after the final injection ([10]; immunohistochemical analysis): at least 3 weeks | tumor growth ([10]; systemic intraperitoneal administration, 30-day follow-up): significant inhibition of tumor growth | immune-suppressive cytokines such as TGF-β [11]: inhibits | production of pro-inflammatory cytokines (IL-2, IL-4, IL-12, IL-15) by systemic APCs ([11]; immune-suppressed patients): induces | co-stimulatory molecules (CD80, CD86) on microglia ([11]; microglia from the CNS of patients with cancer): upregulates | FoxP3 in natural Tregs [12]: down-regulates FoxP3 | tumor growth [13]: statistically significant suppression of tumor growth

Cucurbitacin Q
in vivo tumor growth [14]: suppressed in vivo growth of human lung cancer xenografts

EGF: growth factor, stimulus in HaCaT pSTAT3 test (NSDSECPLSHDGYCLHDGVCMYIEALDKYACNCVVGYIGERCQYRDLKWWELR; Epidermal growth factor; UniProt P01133 971-1023, looked up)
Relative level of pSAT3 [15]: + (+=less than 200 fold)

IL-6: cytokine, stimulus in HaCaT pSTAT3 test
STAT3 activation in keratinocytes [15]: potently induce STAT3 activation | Relative level of pSAT3 [15]: +++++ (+++++=400-500 fold)

bFGF: basic fibroblast growth factor, stimulus in HaCaT pSTAT3 test
Relative level of pSAT3 [15]: + (+=less than 200 fold)
